Experimental data published in patent publication US20190008810A1, “METHOD FOR PREVENTION, TREATMENT AND ALLEVIATION OF INFECTIOUS DISEASES AND DISORDERS” (REPLICON HEALTH OY, priority 2016, published 2019).

Tests used:
intraocular pressure = assay: Intraocular pressure (IOP) in glaucoma, S1; type: in vivo, human
Text: FIG. 12: Numerical values of the reduction in IOP in Glaucoma after DGA Administration.
The same seems to be true for the efficacy of glaucoma therapy in FIG. 12.

[1] = tested on: primary human hepatocytes; assay: Net ROS generation in human primary hepatocytes; type: cell-based; details: donors
Description: D-glycerate is coded as RH013001 in the graph. […] ARE -activation happens when Nrf2 detaches from cytosolic KEAP1 enzyme and moves to nucleus (SCHEME B).
FIG. 13b: Gene Expression results from Primary Hepatocytes after 48 h+2 h of the DGA Activation vs. 0-control. […] Combined test for PGC-1a yielded P-value of some 10%. Primary human hepatocytes were purchased from Celsis In Vitro Technologies (1450 South Rolling Road Baltimore, Md. 21227, USA). Primary hepatocytes were received from three different post mortem human donators. […] This is also the case for DOO.

fever = assay: Acute fever response in two humans under infection, Example 4; type: in vivo, human
Description: FIG. 11: Numerical values of short term reduction in fever in disease after the DGA Activation (administration approximately 300 mg of D-glyceric acid mixed in water as calcium salt (=2× 200 mg of DGAcs). The results in this table are presented graphically in FIG. 5 and explained in Example 4. Additional Notes: 300 mg of D-glyceric acid is more precisely the same as 430 mg of calcium salt dehydrate formulation, because one calcium atom and 2 water molecules make up some 30% of the total molecular weight. *) Reduction in fever materialized but the symptoms of the disease e.g. pain remained. **) Rather stressful “absent day from work arrangements” by e-mail between 0 minutes and 15 minutes' measurements could possibly have kept fever up.
In Example 4 acute 15 min, 30 min, etc. fever responses of the DGA Activation in two individual under viral and/or bacterial infection (subjects S1 and S4 from e.g. Examples 1b-1f) were measured. Results are presented in graphical format in FIG. 5 and in numeric format in FIG. 11. The measurements of body temperatures after the DGA Activation were made in physiological state where infections (diseases) continue but they have nevertheless more or less stabilized. In this kind of a situation the immune system is activated above healthy and/or subclinical level. The objective was to verify possible spillover effects from reduction in inflammation and in oxidative stress towards fever. At the same the target was to gain more info on the size of suitable administration. (Before initiating any human tests full proof of safety was received from 3 week in vivo experiments with rats. The doses used in these clinical tests are at maximum less than 5% of the safe doses with rats in the 3-week safety tests.)

[2] = tested on: ethanol-dosed gastric cells; details: in vitro study, Habe et al.; cited from earlier work
[3] = tested on: bacterial and/or virus infection of respiratory tract; assay: Healing from more severe respiratory tract infection in S1, Example 1d; type: in vivo, human
Text: Clear symptoms of bacterial and/or virus infection in S1 had started 7 days earlier. Original cause of the disease can also be acquired earlier, i.e. it can have been some hiding pathogen like tuberculosis bacteria that exploits tempting opportunities to attack the body when its defenses are weakened by some physical and/or mental stress (in this case stress could have been also positive stress from overly active days). […] On Friday, they were in an activity theme park with the family and next day, on Saturday they drove for 2 hours to a birthday party lasting to Sunday morning hours, and finally on Sunday visited museum that required 500 km of extra driving there and back. Next day, i.e. on Monday morning, the initiation of infectious condition was felt very clearly.
On Friday afternoon, fever had risen to 37.40 Celsius that is relatively high fever for S1 whose normal temperature is 36.60 Celsius (C) in rest during the day. Fever remained at 37.40 C until the night. During Saturday, the disease and related fever continued. On Sunday morning, temperature was slightly elevated (36.58 C) compared to the normal morning temperature (36.2-36.4 C). Otherwise the general condition was good on this Sunday morning but during the day fever again rose to 37.15 C by the afternoon and the symptoms in respiratory tract got more severe, resembling intensifying bronchitis or similar inflammatory condition.
By Sunday afternoon it started to seem evident that the immune system of S1 (even assisted by almost perfect rest for 3 days already) would not be able to provide a fast resolution to the potentially serious infectious condition. The Double and the Local Enforcements should be started as soon as possible. (Note: acute fever responses, presented in FIG. 5 and FIG. 11 for S1 have been observed from following administrations of D-glyceric acid in water and calcium salt dehydrate.)
At 12:41 S1 took 2×250 mg of D-glyceric acid calcium salt mixed into water to initiate the DGA Activation. At 0715 pm S1 took 2×180 mg of D-glyceric acid calcium salt mixed into water to keep the DGA Activation alive.

## O=C(O)[C@H](O)CO [DGA, D-glyceric acid]
Intraocular pressure; acute dose 1*200 mg
  IOP reduction, sufficiency of acute dose: not necessarily sufficient
Intraocular pressure; first measurement under the full DGA Activation
  IOP compared to relevant control measurement: very significant reduction in IOP
[1]
  net ROS generation: declined for both JGM and CDP statistically very significantly
fever; 2×200 mg oral dose mixed into water
  reducing fever due to infection: very effective in reducing fever
fever; S1, 1×200 mg, Monday 0908 pm
  immediate impact on fever: didn't seem to have any significant immediate impact on fever
fever; S1 and S4
  return of fever: returns almost to the starting level in 1 hour or at least in 1.5 hours
fever; S1 and S4, 2×200 mg of DGAcs in water
  time to reduction of fever: 15 to 30 min
fever; statistically very significant
  decline of fever: modest
[2]
  viability of ethanol-dosed gastric cells: can increase viability of ethanol-dosed gastric cells
[3]; S1, Monday
  body temperature, highest during workday: 36.87 C
[3]; S1, Monday 0630 am
  body temperature: 36.38 C
[3]; S1, Monday 0900 pm
  body temperature: 36.71 C
[3]; S1, Monday 1036 pm
  body temperature: 36.68 C
[3]; S1, Sunday 07:10 pm, before second dose
  body temperature: 36.60 C
[3]; S1, Sunday 0648 pm after 2×250 mg at 12:41, 37.15 C before
  body temperature: 36.58 C
[3]; S1, Sunday 0652 pm
  body temperature: 36.52 C
[3]; S1, Sunday 1015 pm
  body temperature: 36.60 C
[3]; S1, Sunday 1035 pm
  body temperature: 36.61 C
